According to patent US20220193439A1, “TREATMENTS FOR EYE INFECTION” (priority 2020, published 2022):
Several values for one entry are separate records, joined by “and”; a condition that tells them apart may be missing. Equal values may be shown once.

Key:
Assay type in all cases: cell-based
Pseudomonas aeruginosa [1] = assay: riboflavin/UVA laser treatment under normoxic conditions, CFU counting (procedure 2210); details: UVA laser
Experimental: According to an example procedure 2210 shown in FIG. 22A, a dilution factor is determined for Pseudomonas aeruginosa bacteria in step 2210a, and the Pseudomonas aeruginosa is loaded into wells in cell culture plate (e.g., a 96-well plate) in step 2210b. […] In particular, a laser beam of ultraviolet A (UVA) light can be applied with a size of approximately 6.5 mm at 8 Hz. A petri dish is inoculated with the mixture from the wells in step 2210e and incubated (e.g., overnight) in step 2210f. After incubation, the effect of the particular treatment parameters is evaluated by counting colony forming units (CFU) in step 2210g.

Pseudomonas aeruginosa [2] = assay: riboflavin/UVA laser treatment under hyperoxic conditions, CFU counting (procedure 2220); details: for average cell death percentage / CFU: UVA laser, hyperoxic
Experimental: According to an example procedure 2220 shown in FIG. 22B, a dilution factor is determined for Pseudomonas aeruginosa bacteria in step 2220a, and the Pseudomonas aeruginosa is loaded into wells in cell culture plate (e.g., a 96-well plate) in step 2220b. […] In particular, a laser beam of UVA light can be applied with a size of approximately 6.5 mm at 8 Hz. A petri dish is inoculated with the mixture from the wells in step 2220e, and the petri dish is incubated (e.g., overnight) in step 2220f. After incubation, the effect of the treatment parameters is evaluated by counting CFU in step 2220g.

Pseudomonas aeruginosa [3] = assay: riboflavin/UVA LED treatment under normoxic conditions, CFU counting (procedure 2230); details: 0.1% riboflavin, UVA LED
Experimental: According to an example procedure 2230 shown in FIG. 23C, a dilution factor is determined for Pseudomonas aeruginosa bacteria in step 2230a, and the Pseudomonas aeruginosa is loaded into wells in cell culture plate (e.g., a 96-well plate) in step 2230b. […] For example, the LED light source may emit UVA light at a size of approximately 6.5 mm. A petri dish is inoculated with the mixture from the wells in step 2230e, and the petri dish is incubated (e.g., overnight) in step 2230f. After incubation, the effect of the treatment parameters is evaluated by counting CFU in step 2230g.

[4] = tested on: Pseudomonas aeruginosa bacteria; assay: in vitro study of keratitis treatments, petri dish quadrants scanned with laser beam; details: dose approx. 4.5 J/cm^2, irradiance approx. 9 mW/cm^2, ambient air, approx. 70 hours after exposure
From the text: FIG. 13 illustrates an example system 300 for an in vitro study of keratitis treatments. The system 300 includes an illumination system 320 that emits a laser beam that can be scanned across a petri dish containing a sample. The system 300 also includes a UV window 350 that can be selectively employed to transmit UV light in the study. Additionally, the system 300 includes a holder 360 that holds the petri dish. The holder 360 includes tubing to receive and deliver a concentration of O2 to some samples in the study. Furthermore, the system 300 includes a micrometer 370 to determine the position of the holder 360 and thus the petri dish along a vertical axis (z-axis) relative to the illumination system 320.
FIG. 14A illustrates a petri dish with an example sample 30 for the in vitro study of keratitis treatments employing the system 300. The preparation of the sample 30 involves inoculation with Pseudomonas aeruginosa bacteria (which causes keratitis) and incubation for approximately 48 hours. The resulting bacterial growth in the sample 30 is visible in FIG. 14A. The sample 30 is divided into four quadrants 30a-d to mark areas of the bacterial growth that are exposed to different conditions.
FIG. 14B illustrates the delivery of the laser beam from the illumination system 320 to selected quadrants of the sample 30. As shown, the laser beam is scanning the second quadrant 30b. […]

bacterial growth = assay: riboflavin solution without photoactivation, bacterial growth
From the text: Studies by the present inventors indicate that the antimicrobial effect depends on UV dose and power.

[5] = 0.1% riboflavin, 2.5 mW/cm^2, 2.5 J/cm^2, n=3
[6] = 0.1% riboflavin, 40 mW/cm^2, 40 J/cm^2, n=3
[7] = 0.1% riboflavin, irradiance 2.5 mW/cm^2, dose 2.5 J/cm^2, replicates 1-3
[8] = 0.1% riboflavin, irradiance 40 mW/cm^2, dose 40 J/cm^2, replicates 1-3

Cc1cc2nc3c(=O)[nH]c(=O)nc-3n(C[C@H](O)[C@H](O)[C@H](O)CO)c2cc1C [riboflavin]
average cell death percentage (Pseudomonas aeruginosa [1]; [5]): 29.0% | average cell death percentage (Pseudomonas aeruginosa [1]; [6]): 67.1% | CFU (Pseudomonas aeruginosa [1]; [7]): 82 CFU and 91 CFU (2×) | CFU (Pseudomonas aeruginosa [1]; [8]): 21 CFU and 32 CFU and 61 CFU | average cell death percentage (Pseudomonas aeruginosa [1]; 0.5% riboflavin, 2.5 mW/cm^2, 2.5 J/cm^2, n=3): −55.4% | average cell death percentage (Pseudomonas aeruginosa [1]; 0.5% riboflavin, 40 mW/cm^2, 40 J/cm^2, n=3): 26.0% | CFU (Pseudomonas aeruginosa [1]; 0.5% riboflavin, irradiance 2.5 mW/cm^2, dose 2.5 J/cm^2, replicates 1-3): 86 CFU (2×) and 51 CFU | CFU (Pseudomonas aeruginosa [1]; 0.5% riboflavin, irradiance 40 mW/cm^2, dose 40 J/cm^2, replicates 1-3): 37 CFU (2×) and 35 CFU | average cell death percentage (Pseudomonas aeruginosa [2]; [5]): 16.1% | average cell death percentage (Pseudomonas aeruginosa [2]; [6]): 82.7% | CFU (Pseudomonas aeruginosa [2]; [7]): 52 CFU and 34 CFU and 12 CFU | CFU (Pseudomonas aeruginosa [2]; [8]): 9 CFU and 14 CFU and 4 CFU | average cell death percentage (Pseudomonas aeruginosa [2]; 0.2% riboflavin, 20 mW/cm^2, 20 J/cm^2, n=3): 58.9% | average cell death percentage (Pseudomonas aeruginosa [2]; 0.2% riboflavin, 40 mW/cm^2, 20 J/cm^2, n=3): 38.1% | CFU (Pseudomonas aeruginosa [2]; 0.2% riboflavin, irradiance 2.5 mW/cm^2, dose 2.5 J/cm^2, replicates 1-3): 140 CFU and 101 CFU and 114 CFU | CFU (Pseudomonas aeruginosa [2]; 0.2% riboflavin, irradiance 40 mW/cm^2, dose 20 J/cm^2, replicates 1-3): 78 CFU and 63 CFU and 77 CFU | average cell death percentage (Pseudomonas aeruginosa [2]; 0.22% riboflavin, 2.5 mW/cm^2, 2.5 J/cm^2, n=3): 13.9% | average cell death percentage (Pseudomonas aeruginosa [2]; 0.22% riboflavin, 40 mW/cm^2, 40 J/cm^2, n=3): 76.9% | CFU (Pseudomonas aeruginosa [2]; 0.22% riboflavin, irradiance 2.5 mW/cm^2, dose 2.5 J/cm^2, replicates 1-3): 218 CFU and 187 CFU and 191 CFU | CFU (Pseudomonas aeruginosa [2]; 0.22% riboflavin, irradiance 40 mW/cm^2, dose 40 J/cm^2, replicates 1-3): 56 CFU and 83 CFU and 33 CFU | effect of supplemental oxygen on bacterial death (Pseudomonas aeruginosa [2]; riboflavin photoactivated with a scanning laser): does create additional bacterial death | average cell death percentage (Pseudomonas aeruginosa [3]; 8.6 mW/cm^2, 8.6 J/cm^2, n=3): -9.3% | average cell death percentage (Pseudomonas aeruginosa [3]; 75 mW/cm^2, 75 J/cm^2, n=3): 73.6% | CFU (Pseudomonas aeruginosa [3]; irradiance 8.6 mW/cm^2, dose 8.6 J/cm^2, replicates 1-3): 156 CFU and 94 CFU and 124 CFU | CFU (Pseudomonas aeruginosa [3]; irradiance 75 mW/cm^2, dose 75 J/cm^2, replicates 1-3): 26 CFU and 29 CFU and 35 CFU | bacteria in quadrants that received riboflavin and photoactivating UV light [4]: effectively eliminated | effect of riboflavin solution on its own on bacterial growth (bacterial growth): does not directly inhibit bacterial growth
